In patent publication US20200290950A1, “ALKAMIDE COMPOUNDS AND USES THEREOF” (NORTH CAROLINA STATE UNIVERSITY, priority 2017, published 2020):

What was measured:
TRPV1 = target: T1, TRPV1 (Mus musculus, UniProt Q704Y3); test: Calcium response of DRG neurons to capsaicin; type: cell-based; details: cultured DRG neurons, fluorescence microscopy
T1 construct: The receptors TRPA1 and TRPV1 are expressed on neurons; from tissue; host or cells: primary dorsal root ganglion neurons from mice
From the text: FIG. 11. Calcium response from DRG sensory neurons to alkamide of transient receptors. Mustard a TRPA1-receptor agonist activates DRG neurons in gray (A) and capsaicin, an agonist for TRPV1-receptors in the DRG neurons in red (B). Ligand A15 inhibits both TRPA1 and TRPV1 receptors activation in orange; however, 85Y a synthetic ligand only reduces the inhibition of TRPA1 but not TRPV1 receptors in blue. Total number of neurons (n)=135-145; p≤0.05.
Several different model systems were utilized for these experiments. In one model, dorsal root ganglia were obtained from mice and the neurons cultured in vitro. The neurons were then stimulated in the presence/absence of A15 and YM8-85 and the calcium responses monitored by fluorescence microscopy. In the second model, the alkamides were applied to mouse skin in mineral oil. The reactions of these mice to heat, cold, and tactile stimulation was then compared with mice that had not received treatment with A15. […] Alkamides were applied to sensitized animals and then ear swelling and bouts of scratching were monitored.
In vitro DRG neuron responses. […] Neurons were stimulated with mustard (allyl isothiocyanate) (A) an agonist for the receptor TRPA-1 or capsaicin (B) an agonist for the receptor TRPV-1 and calcium responses were measured in individual neurons by fluorescence microscopy. […]

β-hexosaminidase = β-hexosaminidase enzyme activity in RBL-2H3 cell lysates with p-NAG; type: biochemical, rat; details: 1 hr at 37° C.
Protocol: FIG. 8. […] RBL-2H3 cells were lysed with 0.1% Triton X-100 to release β-hex from the cells. Lysates were incubated for 1 hr at 37° C. with the substrate, p-NAG, in combination with the indicated concentrations of A15 or vehicle only. The absorbance at 405 nm was measured using a microplate spectrophotometer. Results shown are the means±SEM of triplicate wells from a representative experiment out of 2 independent experiments. Statistical analysis was performed using a one-way ANOVA with Dunnett's post-hoc test.

[1] = system: RAW 264.7 macrophage-like cells; test: Fluo-4 calcium assay, RAW 264.7 cells; type: cell-based, mouse; details: 1 μM A23187, 100 μM A15, at 1 min
Protocol: FIGS. 4A-4D. A15 inhibits A23187-stimulated calcium influx in RAW 264.7 and Jurkat cells. RAW 264.7 (FIG. 4A-4B) or Jurkat cells (FIG. 4C-4D) were loaded with fluo-4 AM using the Fluo-4 AM Direct™ Calcium Assay Kit and fluorescence was measured on a microplate reader. Cells were stimulated with 1 μM A23187 in combination with vehicle only or 100 μM A15. Bar graphs represent the means±SEM of the Δ in RFU's at 1 min post-A23187 stimulation from 3 independent experiments. Statistical analysis was performed using an unpaired Student's t-test, *p<0.05.
RBL-2H3, BMMC, RAW 264.7, or Jurkat cells were plated in clear-bottom, black, 96-well plates (BioExpress, Kaysville, Utah) and incubated overnight with media only or media containing IgE anti-DNP. […] Prior to stimulation, baseline fluorescent readings were measured from triplicate wells in 5 s intervals for 1 min using a Synergy HT microplate reader with 485/20 nm excitation and 528/20 nm emission filters. Cells were then treated with either 1 μM A23187 or 50 ng/mL DNP-BSA prepared in calcium- and magnesium-containing or calcium- and magnesium-free HBSS with 20 mM HEPES, and fluorescence was measured in 10 s intervals for 2 min. […] The average baseline fluorescence of each well was subtracted from the stimulated fluorescent values to calculate the change (Δ) in RFU's and graphed as shown.

T1 sequence (Q704Y3 whole entry): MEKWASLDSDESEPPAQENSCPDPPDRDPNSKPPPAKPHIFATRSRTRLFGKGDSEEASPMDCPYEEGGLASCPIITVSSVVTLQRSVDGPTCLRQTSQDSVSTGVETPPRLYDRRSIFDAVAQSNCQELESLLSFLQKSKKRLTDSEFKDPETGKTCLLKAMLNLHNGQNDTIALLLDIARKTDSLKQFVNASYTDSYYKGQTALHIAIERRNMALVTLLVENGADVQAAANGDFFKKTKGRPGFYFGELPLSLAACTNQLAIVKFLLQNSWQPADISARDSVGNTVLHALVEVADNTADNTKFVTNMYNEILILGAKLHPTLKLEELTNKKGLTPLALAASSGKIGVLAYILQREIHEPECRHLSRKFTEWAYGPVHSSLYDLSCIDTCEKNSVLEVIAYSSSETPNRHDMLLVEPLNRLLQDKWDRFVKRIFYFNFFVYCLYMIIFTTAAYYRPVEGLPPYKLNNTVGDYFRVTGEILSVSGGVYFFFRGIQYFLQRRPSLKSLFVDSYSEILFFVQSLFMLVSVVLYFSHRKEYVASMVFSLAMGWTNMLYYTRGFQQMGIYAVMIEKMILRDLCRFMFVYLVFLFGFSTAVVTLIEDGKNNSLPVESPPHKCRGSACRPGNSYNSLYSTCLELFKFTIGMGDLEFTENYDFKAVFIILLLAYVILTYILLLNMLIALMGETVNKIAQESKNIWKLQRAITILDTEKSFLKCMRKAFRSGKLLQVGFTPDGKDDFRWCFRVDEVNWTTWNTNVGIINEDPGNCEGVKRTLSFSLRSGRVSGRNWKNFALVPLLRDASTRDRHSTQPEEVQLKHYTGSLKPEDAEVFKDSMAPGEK

DRG neuron calcium response to capsaicin (TRPV1 agonist) (TRPV1): inhibited
SMILES: CCCCCCC/C=C/C=C/C(=O)NCC(C)C [A15, (2E,4E)-N-Isobutyldodeca-2,4-dienamide]
enzymatic activity of β-hex (production of chromogenic product from p-NAG) (β-hexosaminidase): not inhibited
suppression of calcium influx [1]: 60.2%
